According to publication PMC5382161 (Frontiers in Microbiology, 2017):
Converted amounts (≈) assume the structure as drawn. Where two headings read alike, the source gives them in different places.

What was measured:
[1] = system: Mycobacterium smegmatis mc^2 155; assay: microbe, parasite or virus in culture; format: cell-based
[2] = target: T1, MtbFtsZ (Mycobacterium tuberculosis, UniProt P9WN95); format: biochemical
T1 construct: inferred from pET15 vector and Ni-NTA purification; made in house; host or cells: E. coli BL21 (DE3) Rosetta
T1 sequence (P9WN95 1-379): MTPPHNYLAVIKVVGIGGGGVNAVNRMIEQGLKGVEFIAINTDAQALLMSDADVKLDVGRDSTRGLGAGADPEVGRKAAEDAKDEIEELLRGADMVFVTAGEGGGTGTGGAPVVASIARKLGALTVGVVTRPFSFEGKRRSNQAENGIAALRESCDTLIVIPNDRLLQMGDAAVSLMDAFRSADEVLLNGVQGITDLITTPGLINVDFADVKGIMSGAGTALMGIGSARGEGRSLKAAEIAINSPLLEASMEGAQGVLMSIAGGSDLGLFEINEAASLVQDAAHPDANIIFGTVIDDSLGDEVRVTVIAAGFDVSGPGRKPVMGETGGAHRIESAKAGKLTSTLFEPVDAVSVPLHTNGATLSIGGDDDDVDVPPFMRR

[3] = system: M. smegmatis mc^2 155; assay: Bacterial cell length by bright field microscopy; format: cell-based, Mycobacterium smegmatis
[4] = system: Mycobacterium tuberculosis H37Rv; design: method as in Rezayan et al., 2012; Upadhyay et al., 2012; settings: ref Rezayan et al., 2012, Upadhyay et al.; cited from earlier work
[5] = target: T2, MtbFtsZ wild type (Mycobacterium tuberculosis, UniProt P9WN95); format: biochemical
T2 construct: inferred from pET15 vector and Ni-NTA purification; made in house; host or cells: E. coli BL21 (DE3) Rosetta
T2 sequence (P9WN95 1-379): T1 sequence (P9WN95 1-379)

[6] = system: bacteria; design: method as in Jaiswal et al., 2007; Bhattacharya et al., 2013; settings: ref Jaiswal et al., 2007; Bhattacharya et al., 2013; cited from earlier work
[7] = target: T2, MtbFtsZ wild type; format: biochemical; remark: listed apart in the source
[8] = system: FtsZ localization in M. smegmatis mc^2 155; assay: FtsZ localization by immunofluorescence microscopy; format: cell-based, Mycobacterium smegmatis; settings: late logarithmic phase cells grown with compound for 4 h
Protocol: The effect of coumarins on the Z-ring formation of M. smegmatis was determined with immunofluoresence microscopy using anti-FtsZ antibodies (Dziedzic et al., [2010]). Late logarithmic phase cells were grown in the presence and absence of coumarins for 4 h. The cells were fixed with formaldehyde washed with phosphate buffer, and immuno-stained with polyclonal anti-FtsZ rabbit antibody (GeneTeX, USA) overnight at 4°C. Alexa fluor (488) goat anti-rabbit secondary antibody (Invitrogen, USA) was used for visualizing Z-rings. The nuclear material was visualized by using an anti-mountant containing DAPI. The cells were visualized in 63 X objective using a Carl-Zeiss fluorescence Microscope (Axio Imager 2 for Life Science Research, Germany). The images were visualized and processed using ZEN image processing software.

[9] = Mycolicibacterium smegmatis, MC^2155, 48 h
[10] = Mycolicibacterium smegmatis, MC^2155, 48 h, M. smegmatis mc^2 155, MABA, 37°C, 48 h, read-out: MIC
[11] = M. smegmatis mc^2 155, MABA, 37°C, 48 h

SMILES: O=c1ccc2cc(O)c(O)cc2o1 [Esculetin]
- MIC [1, 9]: 48.2 ± 5.7 µM (≈ 8.59 µg/mL)
- protofilament formation (TEM) [2]: did not allow the formation of network for a protofilament
- increase of bacterial length [3]: 4 fold
- maximum bacterial length [3]: 17.85 ± 4.5 μm

SMILES: COc1cc2ccc(=O)oc2cc1O [scopoletin, reference compound]
- MIC [4]: 42 µg/mL (≈ 219 µM)

SMILES: Cc1cc(=O)oc2cc(O)ccc12 [4-Methylumbelliferone]
- MIC [1, 10]: 42.5 ± 2.4 µM (≈ 7.49 µg/mL)

SMILES: CC(C)c1c(O)ccc2c1CC[C@H]1C(C)(C)CCC[C@]21C [Totarol]
- inhibition of the polymerization activity of the protein [5]: 74% ± 2
- increase of the length of bacteria [6]: 5 fold
- inhibition of the GTPase activity of the protein [7]: 68% ± 3.1

SMILES: CCN(CC)c1ccc2c(C)cc(=O)oc2c1 [7-Diethylamino-4-methylcoumarin]
- MIC [1, 9]: 70.2 ± 6.2 µM (≈ 16.2 µg/mL)

SMILES: O=c1oc2c(O)c(O)cc3c(=O)oc4c(O)c(O)cc1c4c23 [Ellagic acid]
- MIC [1, 11]: 50 ± 2.4 µM (≈ 15.1 µg/mL)
- MIC ([1]; M. smegmatis mc^2 155, MABA, 37°C, 48 h, listed as ellagic acid, read-out: MIC): 50 µM (≈ 15.1 µg/mL)
- MIC [1, 10]: 25 µM (≈ 7.55 µg/mL)

SMILES: O=c1ccc2ccccc2o1 [Coumarin]
- MIC [1, 10]: 214 ± 8.7 µM (≈ 31.2 µg/mL)

SMILES: O=c1ccc2ccc(O)c(O)c2o1 [Daphnetin]
- MIC [1, 9]: 48.2 ± 6.3 µM (≈ 8.59 µg/mL)

SMILES: O=c1ccc2ccc(O)cc2o1 [Umbelliferone]
- MIC [4]: 58.3 µg/mL (≈ 360 µM)
- MIC [1, 9]: 46.2 ± 3.2 µM (≈ 7.49 µg/mL)

SMILES: CC1=CC(=O)c2c(O)cccc2C1=O [Plumbagin]
- increase of the length of bacteria [6]: 7 fold

SMILES: Cc1ccc2oc(=O)ccc2c1 [6-Methylcoumarin]
- MIC [1, 10]: 46.8 ± 4.3 µM (≈ 7.5 µg/mL)

SMILES: Cc1cc(=O)oc2cc(N(C)C)ccc12 [7-Dimethyl-4-methylcoumarin]
- MIC [1, 11]: 36.8 ± 7.1 µM (≈ 7.48 µg/mL)
- MIC ([1]; M. smegmatis mc^2 155, MABA, 37°C, 48 h, listed as 7-Dimethyl-4-methyl coumarin, read-out: MIC): 36.8 µM (≈ 7.48 µg/mL)
- MIC [1, 10]: 38.7 µM (≈ 7.87 µg/mL)
- protofilament formation (TEM) [2]: did not allow the formation of network for a protofilament
- increase of bacterial length ([3]; cells treated with 50 μM, versus untreated cells): 4 fold
- maximum bacterial length ([3]; cells treated with 50 μM, untreated 4.48 ± 1.25 μm): 15.2 ± 3.5 μm
- FtsZ localization (immunofluorescence) [8]: localization of MtbFtsZ was disrupted

SMILES: [H]/N=C(/N)N[C@H]1[C@H](O)[C@@H](O)[C@H](O[C@@H]2O[C@@H](C)[C@](O)(C=O)[C@H]2O[C@@H]2O[C@@H](CO)[C@H](O)[C@@H](O)[C@@H]2NC)[C@@H](N/C(N)=N\[H])[C@@H]1O [streptomycin, reference compound]
- MIC [1, 10]: 11.2 µM (≈ 6.5 µg/mL)

SMILES: CO[C@H]1/C=C/O[C@@]2(C)Oc3c(C)c(O)c4c(O)c(c(/C=N/N5CCN(C)CC5)c(O)c4c3C2=O)NC(=O)/C(C)=C\C=C\[C@H](C)[C@H](O)[C@@H](C)[C@@H](O)[C@@H](C)[C@H](OC(C)=O)[C@@H]1C [Rifampicin, reference compound]
- MIC [1, 10]: 3.9 µM (≈ 3.21 µg/mL)

SMILES: O=c1cc(O)c2ccccc2o1 [4-Hydroxycoumarin]
- MIC [1, 10]: 150 ± 7.4 µM (≈ 24.4 µg/mL)

SMILES: COc1ccc2cc3[n+](cc2c1OC)CCc1cc2c(cc1-3)OCO2 [Berberine]
- inhibition of the polymerization activity of the protein [5]: 82% ± 1.4
- inhibition of the GTPase activity of the protein [7]: 75% ± 2.5
